Test results published in US10149837B2, “Selective agonists of beta-adrenergic type 3 receptors (BAR3) and use thereof” (UNIVERSITA' DEGLI STUDI DI BARI, priority 2015, dated 2018).
“Also recorded” adds a separate entry of the source.

Legend:
[1] = system: AQP2; experiment: kidney slices: AQP2 localisation by confocal laser scanning after stimulation; format: cell-based, mice; conditions: slices of vital tissue from murine C57BL-6 kidneys, 45 minutes of stimulation
Description: By the technique of “kidney slices”, thin slices of vital tissue from murine C57BL-6 kidneys have been obtained which, maintained in culture medium and appropriate atmosphere, have been stimulated with agonists able to increase the intracellular levels of cAMP (forskolin and vasopressin) and with the agonist of murine BRL37344 BAR3. After 45 minutes of stimulation the tissues have been fixed, marked for AQP2 and observed by confocal laser scanning.

[2] = system: conditional knockout mice for AVPR2; experiment: diuresis and urine osmolality in the animal model of X-linked nephrogenic diabetes insipidus (metabolic cage); format: in vivo
Description: At one hour from the injection of the compound, the diuresis of the treated mice is set to zero compared to control animals.
In the mouse affected by nephrogenic diabetes insipidus (X-NDI) for conditional deletion of the AVPR2 receptor, the compound BRL37344 has been administered by intraperitoneal injection at the dosage of 0.6 mg/Kg. Five animals received the compound whereas as many control animals received the vehicle only (physiological saline). The cumulative diuresis has been measured in metabolic cage in both animal groups.
The data obtained are in line with a transient effect induced by the stimulation of the renal BAR3 receptors by BRL37344.

[3] = X-NDI animal model, summary statement, no time point
[4] = X-NDI mice, 0.6 mg/Kg intraperitoneal, second hour after injection, vs control group, acetic acid sodium hydrate, 0.6 mg/kg

| SMILES | apical membrane expression (repositioning) of AQP2 [1] | diuresis [2, 3] | urine osmolality [2, 3] | cumulative diuresis ([2]; X-NDI mice, 0.6 mg/Kg intraperitoneal, end of third hour after injection, vs control group, acetic acid sodium hydrate, 0.6 mg/kg) | cumulative diuresis ([2]; X-NDI mice, 0.6 mg/Kg intraperitoneal, first hour after injection, vs control group) | cumulative diuresis [2, 4] | urine osmolality [2, 4] | urine osmolality ([2]; X-NDI mice, 0.6 mg/Kg intraperitoneal, third hour after injection, vs control group, acetic acid sodium hydrate, 0.6 mg/kg) | apical membrane expression (repositioning) of AQP2 ([1]; acetic acid sodium hydrate) |
| --- | --- | --- | --- | --- | --- | --- | --- | --- | --- |
| NC(=O)CC[C@@H]1NC(=O)[C@H](Cc2ccccc2)NC(=O)[C@H](Cc2ccc(O)cc2)NC(=O)[C@@H](N)CSSC[C@@H](C(=O)N2CCC[C@H]2C(=O)N[C@@H](CCCN=C(N)N)C(=O)NCC(N)=O)NC(=O)[C@H](CC(N)=O)NC1=O [Vasopressin, vasopressin] | translocates AQP2 on the apical membrane of the tubular cells | – | – | – | – | – | – | – | – |
| C[C@H](Cc1ccc(OCC(=O)O)cc1)NC[C@H](O)c1cccc(Cl)c1.O.[Na] (relative stereo) [BRL37344, (±)-(R*,R*)-[4-[2-[[2-(3-Chlorophenyl)-2-hydroxyethyl]amino]propyl]phenoxy] acetic acid sodium hydrate] | – | drastic reduction of diuresis | increase of urine osmolality | still drastically reduced; also recorded: still remained statistically lower than that of the control group | set to zero | drastically reduced; also recorded: statistically reduced compared to the control group | significantly increased | tendency to increase although not statistically significant; also recorded: on average higher although not statistically different from that of the control group | able to increase the apical levels of AQP2 with an effect comparable to that produced by vasopressin; also recorded: determines a repositioning of the marking of AQP2 on the apical membrane |
